Converted amounts (≈) assume the structure as drawn. The source made the active and inactive calls. The rule behind the calls is not given here.
Key:
Mus musculus [1] = species on record: Mus musculus; test: Anti-psoriatic activity in IMQ-induced BALB/c psoriasis mouse model assessed as reduction in scales score at 62.5 mg as 4% ointment, TOP daily and measured upto 7 days; type: functional, organism-based; conditions: time <= 7.0 day, DDE = dose-dependent effect
Mus musculus [2] = species on record: Mus musculus; test: Anti-psoriatic activity in IMQ-induced BALB/c psoriasis mouse model assessed as reduction in scales score at 62.5 mg as 2% ointment, TOP daily and measured upto 7 days; type: functional, organism-based; conditions: time <= 7.0 day, DDE = dose-dependent effect
Mus musculus [3] = species on record: Mus musculus; test: Anti-psoriatic activity in IMQ-induced BALB/c psoriasis mouse model assessed as reduction in thickness score at 62.5 mg as 2% ointment, TOP daily and measured upto 7 days; type: functional, organism-based; conditions: time <= 7.0 day, DDE = dose-dependent effect
[4] = Toxicity in IMQ-induced BALB/c psoriasis mouse model assessed as body weight loss at 62.5 mg as 4% ointment, TOP daily and measured upto 7 days; conditions: in vivo, topical_or_ocular, 168 h, time < 7 day
[5] = Aqueous solubility of compound by HPLC analysis; type: physicochemical; conditions: buffer
[6] = target: High affinity cAMP-specific and IBMX-insensitive 3',5'-cyclic phosphodiesterase 8A (Homo sapiens, UniProt O60658); test: Inhibition of PDE8A1 (480 to 820 residues) (unknown origin) expressed in Escherichia coli BL21 using [3H-GMP] or [3H-AMP] as substrate incubated for 15 mins by liquid scintillation counting method
Sequence of High affinity cAMP-specific and IBMX-insensitive 3',5'-cyclic phosphodiesterase 8A (O60658 whole entry, the tested form may be a part): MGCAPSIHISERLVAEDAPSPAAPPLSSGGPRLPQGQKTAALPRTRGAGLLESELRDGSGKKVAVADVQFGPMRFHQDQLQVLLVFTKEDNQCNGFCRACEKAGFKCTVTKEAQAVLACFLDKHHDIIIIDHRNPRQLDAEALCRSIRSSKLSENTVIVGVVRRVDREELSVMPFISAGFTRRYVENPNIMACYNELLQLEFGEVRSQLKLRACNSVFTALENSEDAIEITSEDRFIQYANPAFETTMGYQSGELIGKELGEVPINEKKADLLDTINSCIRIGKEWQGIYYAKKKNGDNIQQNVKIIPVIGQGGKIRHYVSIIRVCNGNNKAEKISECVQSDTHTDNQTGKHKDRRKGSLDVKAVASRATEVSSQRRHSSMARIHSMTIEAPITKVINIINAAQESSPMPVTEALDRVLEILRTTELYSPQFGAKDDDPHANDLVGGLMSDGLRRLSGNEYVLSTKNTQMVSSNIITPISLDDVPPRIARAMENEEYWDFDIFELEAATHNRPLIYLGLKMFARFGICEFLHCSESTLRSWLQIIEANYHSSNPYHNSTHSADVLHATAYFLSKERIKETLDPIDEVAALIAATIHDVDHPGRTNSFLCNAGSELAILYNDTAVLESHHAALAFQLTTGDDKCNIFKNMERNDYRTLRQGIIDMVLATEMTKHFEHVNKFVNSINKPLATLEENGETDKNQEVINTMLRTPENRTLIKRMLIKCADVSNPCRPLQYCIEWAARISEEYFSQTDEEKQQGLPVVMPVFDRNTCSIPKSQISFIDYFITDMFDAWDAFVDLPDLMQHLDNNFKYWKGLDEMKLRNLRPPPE

[7] = Clearance in ICR mouse at 10 mg/kg, iv measured upto 24 hrs by LC-MS/MS analysis; type: ADME, organism-based; conditions: in vivo
Mus musculus [8] = test: Anti-psoriatic activity in IMQ-induced BALB/c psoriasis mouse model assessed as reduction in total clinical score at 10 mg/kg, po for 7 days; type: functional, organism-based; conditions: time 7.0 day
Mus musculus [9] = species on record: Mus musculus; test: Anti-psoriatic activity in IMQ-induced BALB/c psoriasis mouse model assessed as reduction in dermal cell proliferation at 62.5 mg as 2% ointment, TOP daily for 7 days by Ki67+ expression based immunohistochemistry analysis; type: functional, organism-based; conditions: time 7.0 day
[10] = AUC (0 to t) in ICR mouse at 10 mg/kg, iv measured upto 24 hrs by LC-MS/MS analysis; type: ADME, organism-based; set-up: dose 10 mg/kg, time < 24 hrs, route iv; conditions: in vivo
[11] = Cmax in ICR mouse at 30 mg/kg, po measured upto 24 hrs by LC-MS/MS analysis; type: ADME, organism-based; set-up: time < 24 hrs, dose 30 mg/kg, route po; conditions: in vivo
[12] = target: Voltage-gated inwardly rectifying potassium channel KCNH2 (Homo sapiens, UniProt Q12809); test: Inhibition of hERG by Q patch automated patch-clamp method; type: toxicity
[13] = Toxicity in BALB/c mouse assessed as body weight loss at 62.5 mg as 2% ointment, TOP daily and measured upto 7 days; conditions: in vivo, topical_or_ocular, 168 h, time < 7 day
[14] = Stability in rat liver microsomes assessed as half life measure upto 45 mins in presence of NADPH by LC-MS analysis; type: ADME, Microsome
[15] = target: cGMP-inhibited 3',5'-cyclic phosphodiesterase 3A (Homo sapiens, UniProt Q14432); test: Inhibition of PDE3A (679 to 1087 residues) (unknown origin) expressed in Escherichia coli BL21 using [3H-GMP] or [3H-AMP] as substrate incubated for 15 mins by liquid scintillation counting method
Sequence of cGMP-inhibited 3',5'-cyclic phosphodiesterase 3A (Q14432 whole entry, the tested form may be a part): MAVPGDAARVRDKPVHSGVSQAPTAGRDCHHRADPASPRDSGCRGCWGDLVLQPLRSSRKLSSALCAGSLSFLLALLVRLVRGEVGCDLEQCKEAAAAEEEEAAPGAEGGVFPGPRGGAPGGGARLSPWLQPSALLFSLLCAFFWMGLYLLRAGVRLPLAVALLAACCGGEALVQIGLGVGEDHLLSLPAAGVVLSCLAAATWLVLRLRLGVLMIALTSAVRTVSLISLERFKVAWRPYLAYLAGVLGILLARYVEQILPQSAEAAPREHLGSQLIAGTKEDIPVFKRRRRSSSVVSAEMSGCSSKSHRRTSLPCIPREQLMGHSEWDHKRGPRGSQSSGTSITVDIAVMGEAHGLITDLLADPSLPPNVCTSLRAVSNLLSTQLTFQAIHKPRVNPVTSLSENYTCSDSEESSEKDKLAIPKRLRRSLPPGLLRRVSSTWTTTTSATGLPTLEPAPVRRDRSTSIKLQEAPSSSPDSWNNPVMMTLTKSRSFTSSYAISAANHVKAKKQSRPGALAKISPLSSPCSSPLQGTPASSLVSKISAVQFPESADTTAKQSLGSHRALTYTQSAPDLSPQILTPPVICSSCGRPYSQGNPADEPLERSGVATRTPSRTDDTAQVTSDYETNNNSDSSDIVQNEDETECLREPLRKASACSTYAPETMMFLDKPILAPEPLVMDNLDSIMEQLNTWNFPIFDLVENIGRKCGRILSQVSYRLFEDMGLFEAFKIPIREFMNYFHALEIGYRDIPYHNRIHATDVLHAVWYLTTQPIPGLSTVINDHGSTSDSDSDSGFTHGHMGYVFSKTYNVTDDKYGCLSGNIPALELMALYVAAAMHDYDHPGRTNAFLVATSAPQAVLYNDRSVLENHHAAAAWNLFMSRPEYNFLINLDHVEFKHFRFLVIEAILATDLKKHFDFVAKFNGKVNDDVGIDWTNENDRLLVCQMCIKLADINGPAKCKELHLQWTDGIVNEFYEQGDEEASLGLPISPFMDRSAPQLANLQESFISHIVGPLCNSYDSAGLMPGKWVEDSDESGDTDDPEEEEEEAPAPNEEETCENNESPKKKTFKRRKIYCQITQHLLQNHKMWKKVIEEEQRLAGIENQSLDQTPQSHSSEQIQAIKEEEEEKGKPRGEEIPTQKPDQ

[16] = Toxicity in BALB/c mouse assessed as body weight loss at 62.5 mg as 4% ointment, TOP daily and measured upto 7 days; conditions: in vivo, topical_or_ocular, 168 h, time < 7 day
[17] = target: High affinity cGMP-specific 3',5'-cyclic phosphodiesterase 9A (Homo sapiens, UniProt O76083); test: Inhibition of PDE9A2 (181 to 506 residues) (unknown origin) expressed in Escherichia coli BL21 using [3H-GMP] or [3H-AMP] as substrate incubated for 15 mins by liquid scintillation counting method
Sequence of High affinity cGMP-specific 3',5'-cyclic phosphodiesterase 9A (O76083 whole entry, the tested form may be a part): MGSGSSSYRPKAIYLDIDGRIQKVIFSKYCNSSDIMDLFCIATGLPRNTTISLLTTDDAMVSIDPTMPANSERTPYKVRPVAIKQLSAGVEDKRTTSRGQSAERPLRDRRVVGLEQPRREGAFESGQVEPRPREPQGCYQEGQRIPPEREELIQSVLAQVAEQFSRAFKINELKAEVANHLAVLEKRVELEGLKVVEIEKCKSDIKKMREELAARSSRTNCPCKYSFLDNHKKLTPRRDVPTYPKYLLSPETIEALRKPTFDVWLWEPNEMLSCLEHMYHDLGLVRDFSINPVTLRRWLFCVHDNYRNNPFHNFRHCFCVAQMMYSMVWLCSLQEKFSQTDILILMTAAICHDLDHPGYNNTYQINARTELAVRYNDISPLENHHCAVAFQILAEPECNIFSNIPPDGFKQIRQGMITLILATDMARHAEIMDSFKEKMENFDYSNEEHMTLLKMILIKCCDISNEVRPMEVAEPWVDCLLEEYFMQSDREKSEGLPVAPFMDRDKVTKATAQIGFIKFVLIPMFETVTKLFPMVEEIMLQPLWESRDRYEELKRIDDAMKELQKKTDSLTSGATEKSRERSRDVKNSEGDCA

[18] = AUC (0 to infinity) in ICR mouse at 30 mg/kg, po measured upto 24 hrs by LC-MS/MS analysis; type: ADME, organism-based; set-up: dose 30 mg/kg, time < 24 hrs, route po; conditions: in vivo
[19] = target: cGMP-dependent 3',5'-cyclic phosphodiesterase (Homo sapiens, UniProt O00408); test: Inhibition of PDE2A (580 to 919 residues) (unknown origin) expressed in Escherichia coli BL21 using [3H-GMP] or [3H-AMP] as substrate incubated for 15 mins by liquid scintillation counting method
Sequence of cGMP-dependent 3',5'-cyclic phosphodiesterase (O00408 whole entry, the tested form may be a part): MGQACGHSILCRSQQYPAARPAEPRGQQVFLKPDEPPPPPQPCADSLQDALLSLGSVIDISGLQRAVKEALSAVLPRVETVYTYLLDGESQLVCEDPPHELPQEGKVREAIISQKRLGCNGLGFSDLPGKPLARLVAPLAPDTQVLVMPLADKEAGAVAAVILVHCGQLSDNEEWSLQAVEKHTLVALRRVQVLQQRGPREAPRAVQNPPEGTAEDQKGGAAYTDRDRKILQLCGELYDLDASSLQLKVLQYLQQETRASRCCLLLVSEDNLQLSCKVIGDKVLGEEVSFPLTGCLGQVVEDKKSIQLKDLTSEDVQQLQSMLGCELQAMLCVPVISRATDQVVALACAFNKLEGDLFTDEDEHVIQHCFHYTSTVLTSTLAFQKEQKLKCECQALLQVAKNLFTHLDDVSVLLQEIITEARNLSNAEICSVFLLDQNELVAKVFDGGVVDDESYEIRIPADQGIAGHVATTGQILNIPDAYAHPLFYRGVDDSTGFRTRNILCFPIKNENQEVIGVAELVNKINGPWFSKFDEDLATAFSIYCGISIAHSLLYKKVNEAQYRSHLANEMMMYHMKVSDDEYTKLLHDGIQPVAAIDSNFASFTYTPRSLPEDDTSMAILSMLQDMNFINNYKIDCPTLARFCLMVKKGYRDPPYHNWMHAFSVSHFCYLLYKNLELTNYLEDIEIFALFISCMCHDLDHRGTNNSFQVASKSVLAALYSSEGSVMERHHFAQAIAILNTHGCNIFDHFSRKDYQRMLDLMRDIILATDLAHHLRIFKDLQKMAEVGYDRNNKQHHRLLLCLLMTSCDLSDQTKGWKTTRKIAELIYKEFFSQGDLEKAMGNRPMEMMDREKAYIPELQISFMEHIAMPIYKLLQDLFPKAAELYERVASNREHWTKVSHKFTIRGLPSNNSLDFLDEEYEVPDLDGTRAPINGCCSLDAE

[20] = target: High affinity 3',5'-cyclic-AMP phosphodiesterase 7A (Homo sapiens, UniProt Q13946); test: Inhibition of PDE7A1 (130 to 482 residues) (unknown origin) expressed in Escherichia coli BL21 using [3H-GMP] or [3H-AMP] as substrate incubated for 15 mins by liquid scintillation counting method
Sequence of High affinity 3',5'-cyclic-AMP phosphodiesterase 7A (Q13946 whole entry, the tested form may be a part): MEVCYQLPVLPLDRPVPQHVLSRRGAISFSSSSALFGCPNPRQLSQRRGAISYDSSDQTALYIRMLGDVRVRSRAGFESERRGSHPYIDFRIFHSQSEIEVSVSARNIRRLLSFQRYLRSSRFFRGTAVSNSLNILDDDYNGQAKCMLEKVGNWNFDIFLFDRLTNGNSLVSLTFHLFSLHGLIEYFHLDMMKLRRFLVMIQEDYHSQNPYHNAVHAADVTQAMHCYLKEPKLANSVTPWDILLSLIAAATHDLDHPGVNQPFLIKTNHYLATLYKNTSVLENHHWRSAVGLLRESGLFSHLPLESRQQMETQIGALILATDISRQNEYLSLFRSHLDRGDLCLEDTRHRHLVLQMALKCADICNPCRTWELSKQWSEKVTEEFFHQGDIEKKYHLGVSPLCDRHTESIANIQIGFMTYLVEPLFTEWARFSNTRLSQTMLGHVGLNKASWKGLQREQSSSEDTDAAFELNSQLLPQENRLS

[21] = Stability in human liver microsomes assessed as half life measure upto 45 mins in presence of NADPH by LC-MS analysis; type: ADME, Microsome
Mus musculus [22] = species on record: Mus musculus; test: Anti-psoriatic activity in IMQ-induced BALB/c psoriasis mouse model assessed as reduction in epidermal cell proliferation at 62.5 mg as 4% ointment, TOP daily for 7 days by Ki67+ expression based immunohistochemistry analysis; type: functional, organism-based; conditions: time 7.0 day
[23] = target: 3',5'-cyclic-AMP phosphodiesterase 4B (Homo sapiens, UniProt Q07343); test: Inhibition of PDE4B2 (152 to 487 residues) (unknown origin) expressed in Escherichia coli BL21 using [3H-GMP] or [3H-AMP] as substrate incubated for 15 mins by liquid scintillation counting method
Mus musculus [24] = species on record: Mus musculus; test: Anti-psoriatic activity in IMQ-induced BALB/c psoriasis mouse model assessed as reduction IMQ- induced immune response by measuring spleen weight loss at 62.5 mg as 2% ointment, TOP daily and measured upto 7 days; type: functional, organism-based; conditions: time <= 7.0 day
[25] = target: cGMP-specific 3',5'-cyclic phosphodiesterase (Homo sapiens, UniProt O76074); test: Inhibition of PDE5A1 (535 to 860 residues) (unknown origin) expressed in Escherichia coli BL21 using [3H-GMP] or [3H-AMP] as substrate incubated for 15 mins by liquid scintillation counting method
Mus musculus [26] = species on record: Mus musculus; test: Anti-psoriatic activity in IMQ-induced BALB/c psoriasis mouse model assessed as change in skin thickness at 62.5 mg as 2% ointment, TOP daily for 7 days by hematoxylin and eosin staining based confocal laser scanning microscopy; type: functional, organism-based; conditions: time 7.0 day
Mus musculus [27] = species on record: Mus musculus; test: Anti-psoriatic activity in IMQ-induced BALB/c psoriasis mouse model assessed as reduction in erythema score at 62.5 mg as 4% ointment, TOP daily and measured upto 7 days; type: functional, organism-based; conditions: time <= 7.0 day, DDE = dose-dependent effect
[28] = Toxicity in IMQ-induced BALB/c psoriasis mouse model assessed as body weight loss at 10 mg/kg, po for 7 days; type: organism-based; conditions: in vivo, 168 h, time 7 day
Mus musculus [29] = test: Anti-psoriatic activity in IMQ-induced BALB/c psoriasis mouse model assessed as reduction in scales score at 10 mg/kg, po for 7 days; type: functional, organism-based; conditions: time 7.0 day
[30] = target: Dual specificity calcium/calmodulin-dependent 3',5'-cyclic nucleotide phosphodiesterase 1B (Homo sapiens, UniProt Q01064); test: Inhibition of PDE1B (10 to 487 residues) (unknown origin) expressed in Escherichia coli BL21 using [3H-GMP] or [3H-AMP] as substrate incubated for 15 mins by liquid scintillation counting method
Sequence of Dual specificity calcium/calmodulin-dependent 3',5'-cyclic nucleotide phosphodiesterase 1B (Q01064 whole entry, the tested form may be a part): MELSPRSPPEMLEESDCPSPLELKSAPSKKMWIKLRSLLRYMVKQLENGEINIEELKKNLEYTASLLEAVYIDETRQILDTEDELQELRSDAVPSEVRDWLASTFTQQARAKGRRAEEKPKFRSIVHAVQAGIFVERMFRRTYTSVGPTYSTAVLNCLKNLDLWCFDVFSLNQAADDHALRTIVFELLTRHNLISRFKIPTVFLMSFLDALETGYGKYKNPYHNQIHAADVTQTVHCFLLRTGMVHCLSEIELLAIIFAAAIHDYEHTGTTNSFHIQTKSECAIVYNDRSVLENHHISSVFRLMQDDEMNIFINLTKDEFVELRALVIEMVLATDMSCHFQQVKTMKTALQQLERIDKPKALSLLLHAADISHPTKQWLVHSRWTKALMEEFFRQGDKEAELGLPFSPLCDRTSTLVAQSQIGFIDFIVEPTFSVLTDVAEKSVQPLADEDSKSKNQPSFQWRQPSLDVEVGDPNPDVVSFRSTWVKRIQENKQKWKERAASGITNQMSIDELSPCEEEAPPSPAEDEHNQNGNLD

Mus musculus [31] = species on record: Mus musculus; test: Anti-psoriatic activity in IMQ-induced BALB/c psoriasis mouse model assessed as change in skin thickness at 62.5 mg as 4% ointment, TOP daily for 7 days by hematoxylin and eosin staining based confocal laser scanning microscopy; type: functional, organism-based; conditions: time 7.0 day

solubility [5]: 10 µg/mL (≈ 28.1 µM)
IC50 [6]: 820 nM
clearance [7]: 63.8 mL/min/kg
AUC(0-t) at 24 h [10]: 2610 ng·h/mL
Cmax [11]: 391 ng/mL
half-life [14]: 2.9 min
IC50 [15]: > 10000 nM
IC50 [17]: > 10000 nM
AUC(0-inf) [18]: 1200 ng·h/mL
IC50 [19]: 1510 nM
IC50 [20]: 2130 nM
half-life [21]: 0.9 min
IC50 [23]: 3.2 nM
IC50 [25]: 4250 nM
IC50 [30]: > 10000 nM
SMILES: CCn1c(=O)c2c(c3ccc(C)nc31)O[C@@](C)(CCO)C[C@H]2C=C(C)C
Activity (Mus musculus [1]): Dde
Activity (Mus musculus [2]): Dde
Activity (Mus musculus [3]): Dde
Activity [4]: Non-Toxic
Activity (Mus musculus [8]): Active
Activity (Mus musculus [9]): Active
IC50 [12]: > 50000 nM
Activity [13]: Non-Toxic
Activity [16]: Non-Toxic
Activity (Mus musculus [22]): Active
Activity (Mus musculus [24]): Active
Activity (Mus musculus [26]): Active
Activity (Mus musculus [27]): Dde
Activity [28]: Non-Toxic
Activity (Mus musculus [29]): Active
Activity (Mus musculus [31]): Active
